Biological target: FGFR2 (Homo sapiens, UniProt P21802)
Experiment: FGFR wild type enzyme assay (HTRF KinEASE-TK), FGFR2
Settings: Enz FGFR2 (nM), FGFR2 wild type enzyme

FGFR2, sequence (P21802 399-821 limits assumed): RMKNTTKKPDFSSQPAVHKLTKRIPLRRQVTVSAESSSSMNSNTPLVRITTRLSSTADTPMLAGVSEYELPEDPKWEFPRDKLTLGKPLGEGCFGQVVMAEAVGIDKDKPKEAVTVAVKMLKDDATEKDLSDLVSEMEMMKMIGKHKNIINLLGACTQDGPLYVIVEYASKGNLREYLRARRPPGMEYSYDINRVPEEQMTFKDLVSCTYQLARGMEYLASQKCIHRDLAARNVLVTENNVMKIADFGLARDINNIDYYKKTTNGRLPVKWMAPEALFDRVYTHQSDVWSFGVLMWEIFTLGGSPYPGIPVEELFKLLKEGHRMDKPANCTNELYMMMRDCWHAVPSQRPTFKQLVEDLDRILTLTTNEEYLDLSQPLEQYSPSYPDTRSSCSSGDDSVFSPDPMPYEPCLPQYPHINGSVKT

Compound	IC50
CC(=O)N1CCO[C@@H](Cn2ncc(-c3cc(Sc4ccccc4C#N)c4c(C#N)cnn4c3)c2C)C1 [Example 278, (R)-6-(1-((4-acetylmorpholin-2-yl)methyl)-5-methyl-1H-pyrazol-4-yl)-4-((2-cyanophenyl)thio)pyrazolo [1,5-a]pyridine-3-carbonitrile]	4 nM
CC(=O)N1CCO[C@H](Cn2ncc(-c3cc(Sc4ccccc4C#N)c4c(C#N)cnn4c3)c2C)C1 [Example 279, (S)-6-(1-((4-acetylmorpholin-2-yl)methyl)-5-methyl-1H-pyrazol-4-yl)-4-((2-cyanophenyl)thio)pyrazolo [1,5-a]pyridine-3-carbonitrile]	3 nM
CC(=O)N1CCO[C@@H](Cn2ncc(-c3cc(Sc4ncccc4F)c4c(C#N)cnn4c3)c2C)C1 [Example 280, (R)-6-(1-((4-acetylmorpholin-2-yl)methyl)-5-methyl-1H-pyrazol-4-yl)-4-((3-fluoropyridin-2-yl)thio)pyrazolo[1,5-a]pyridine-3-carbonitrile]	12 nM
Cc1c(-c2cc(Sc3ncccc3F)c3c(C#N)cnn3c2)cnn1[C@H]1CC[C@@H](CO)CC1 [Example 281, 4-((3-fluoropyridin-2-yl)thio)-6-(1-((1s,4s)-4-(hydroxymethyl)cyclohex-yl)-5-methyl-1H-pyrazol-4-yl)pyrazolo[1,5-a]pyridine-3-carbonitril]	2 nM
Cc1c(-c2cc(Sc3ccccc3C#N)c3c(C#N)cnn3c2)cnn1C1CCN(Cc2ncccn2)CC1 [Example 286, 4-((2-cyanophenyl)thio)-6-(5-methyl-1-(1-(pyrimidin-2-ylmethyl)piperidin-4-yl)-1H-pyrazol-4-yl)pyrazolo[1,5-a]pyridine-3-carbonitrile]	1 nM
Cc1c(-c2cc(Sc3ccc(F)cc3C#N)c3c(C#N)cnn3c2)cnn1[C@H]1CC[C@@H](O)CC1 [Example 288, 4-((2-cyano-4-fluorophenyl)thio)-6-(1-((1s,4s)-4-hydroxycyclohexyl)-5-methyl-1H-pyrazol-4-yl)pyrazolo[1,5-a]pyridine-3-carbonitrile]	1 nM
Cc1c(-c2cc(Sc3ccc(F)cn3)c3c(C#N)cnn3c2)cnn1[C@H]1CC[C@@H](O)CC1 [Example 290, 4-((5-fluoropyridin-2-yl)thio)-6-(1-((1s,4s)-4-hydroxycyclohexyl)-5-methyl-1H-pyrazol-4-yl)pyrazolo[1,5-a]pyridine-3-carbonitrile]	5 nM
Cc1c(-c2cc(Sc3ccc(F)cn3)c3c(C#N)cnn3c2)cnn1[C@H]1CC[C@@](C)(N)CC1 [Example 291, 6-(1-((1s,4s)-4-amino-4-methylcyclohexyl)-5-methyl-1H-pyrazol-4-yl)-4-((5-fluoropyridin-2-yl)thio)pyrazolo[1,5-a]pyridine-3-carbonitrile]	3 nM
CN[C@]1(C)CC[C@H](n2ncc(-c3cc(Sc4ccc(F)cn4)c4c(C#N)cnn4c3)c2C)CC1 [Example 292, 4-((5-fluoropyridin-2-yl)thio)-6-(5-methyl-1-((1s,4s)-4-methyl-4-(methylamino)cyclohexyl)-1H-pyrazol-4-yl)pyrazolo[1,5-a]pyridine-3-carbonitrile]	3 nM
N#Cc1cnn2cc(-c3cnn([C@H]4CC[C@@H](O)CC4)c3)cc(Sc3ncccc3F)c12 [Example 293, 4-((3-fluoropyridin-2-yl)thio)-6-(1-((1s,4s)-4-hydroxycyclohexyl)-1H-pyrazol-4-yl)pyrazolo[1,5-a]pyridine-3-carbonitrile]	1 nM
CN[C@]1(C)CC[C@H](n2ncc(-c3cc(Sc4ncccc4F)c4c(C#N)cnn4c3)c2C)CC1 [Example 295, 4-((3-fluoropyridin-2-yl)thio)-6-(5-methyl-1-((1s,4s)-4-methyl-4-(methylamino)cylcohexyl)-1H-pyrazol-4-yl)pyrazolo[1,5-a]pyridine-3-carbonitrile]	1 nM
Cc1c(-c2cc(Sc3ncccc3F)c3c(C#N)cnn3c2)cnn1[C@@H]1CC[C@H](O)[C@H](O)C1 [Example 296, 6-(1-((1R,3R,4S)-3,4-dihydroxycyclohexyl)-5-methyl-1H-pyrazol-4-yl)-4-((3-fluoropyridin-2-yl)thio)pyrazolo[1,5-a]pyridine-3-carbonitrile]	2 nM
CC(=O)N[C@H]1CC[C@@H](n2ncc(-c3cc(Sc4ccc(F)cc4C#N)c4c(C#N)cnn4c3)c2C)CC1 [Example 299, N-((1s,4S)-4-(4-(3-cyano-4-((2-cyano-4-fluorophenyl)thio)pyrazolo [1,5-a]pyridin-6-yl)-5-methyl-1H-pyrazol-1-yl)cyclohexyl)acetamide]	1 nM

The remaining compounds from weak to strong by IC50, led by results:

IC50	Compound
1 nM	Cc1c(-c2cc(Sc3ncccc3F)c3c(C#N)cnn3c2)cnn1[C@H]1CC[C@@](C)(N)CC1 [Example 282, 6-(1-((1s,4s)-4-amino-4-methylcyclohexyl)-5-methyl-1H-pyrazol-4-yl)-4-((3-fluoropyridin-2-yl)thio)pyrazolo[1,5-a]pyridine-3-carbonitrile]
1 nM	Cc1c(-c2cc(Sc3ccccc3C#N)c3c(C#N)cnn3c2)cnn1[C@H]1CC[C@@H](NS(C)(=O)=O)CC1 [Example 285, N-((1s,4s)-4-(4-(3-cyano-4-((2-cyanophenyl)thio)pyrazolo [1,5-a]pyridin-6-yl)-5-methyl-1H-pyrazol-1-y)cyclohexyl)methane-sulfonamide]
0.5 nM	Cc1c(-c2cc(Sc3ccc(F)cc3C#N)c3c(C#N)cnn3c2)cnn1[C@@H]1C[C@H]2CC[C@@H](C1)N2C [Example 289, 4-((2-cyano-4-fluorophenyl)thio)-6-(5-methyl-1-((1R,3s,5S)-8-methyl-8-azabicyclo[3.2.1]octan-3-yl)-1H-pyrazol-4-yl)pyrazolo[1,5-a]pyridine-3-carbonitrile]
0.5 nM	N#Cc1ccccc1Sc1cc(-c2cnn([C@H]3CC[C@@H](O)CC3)c2)cn2ncc(C#N)c12 [Example 294, 4-((2-cyanophenyl)thio)-6-(1-((1s,4s)-4-hydroxycyclohexyl)-1H-pyrazol-4-yl)pyrazolo[1,5-a]pyridine-3-carbonitrile]
0.5 nM	CN(C)[C@H]1CC[C@@H](n2cc(-c3cc(Sc4ccccc4C#N)c4c(C#N)cnn4c3)cn2)CC1 [Example 298, 4-((2-cyanophenyl)thio)-6-(1-((1s,4s)-4-(dimethylamino)cyclohex-yl)-1H-pyrazol-4-yl)pyrazolo[1,5-a]pyridine-3-carbonitrile]
0.4 nM	Cc1c(-c2cc(Sc3ccccc3C#N)c3c(C#N)cnn3c2)cnn1[C@H]1CC[C@H](N(C)CCO)CC1 [Example 284, 4-((2-cyanophenyl)thio)-6-(1-((1r,4SR)-4-((2-hydroxyethyl)(methyl)ami-no)cyclohexyl)-5-methyl-1H-pyrazol-4-yl)pyrazolo[1,5-a]pyridine-3-carbonitrile]
0.4 nM	Cc1c(-c2cc(Sc3ccccc3C#N)c3c(C#N)cnn3c2)cnn1[C@H]1CC[C@@H](NCc2ccccn2)CC1 [Example 287, 4-((2-cyanophenyl)thio)-6-(5-methyl-1-((1s,4s)-4-((pyridin-2-ylmethyl)amino)cyclohex-yl)-1H-pyrazol-4-yl)pyrazolo[1,5-a]pyridine-3-carbonitrile]
0.3 nM	Cc1c(-c2cc(Sc3ccccc3C#N)c3c(C#N)cnn3c2)cnn1[C@H]1CC[C@@](C)(N)CC1 [Example 297, 6-[1-(4-amino-4-methyl-cyclohexyl)-5-methyl-pyrazol-4-yl]-4-(2-cyanophenyl) sulfanylpyrazolo[1,5-a]pyridine-3-carbonitrile]

Source: patent US20240270741A1 (Cogent Biosciences, Inc., priority 2023, published 2024)
